Test results published in patent US11247987B2, “Inhibiting ubiquitin specific peptidase 30” (FORMA Therapeutics, Inc., priority 2017, dated 2022).

These compounds were tested against T1, human recombinant USP30 (Homo sapiens, UniProt Q70CQ3) (assay: Ubiquitin-Rhodamine 110 Assay for USP30 Activity (USP30 Inhibitor Biochemical Assay)). Settings: 0.2 nM USP30, 25 nM Ub-Rh110, 30 min preincubation, 30 min at room temperature; read-out: USP30 potency range (USP30 biochemical IC50 assay, IC50 ranges).
T1 construct: purchased Boston Biochem E-582
T1 sequence (Q70CQ3 1-517): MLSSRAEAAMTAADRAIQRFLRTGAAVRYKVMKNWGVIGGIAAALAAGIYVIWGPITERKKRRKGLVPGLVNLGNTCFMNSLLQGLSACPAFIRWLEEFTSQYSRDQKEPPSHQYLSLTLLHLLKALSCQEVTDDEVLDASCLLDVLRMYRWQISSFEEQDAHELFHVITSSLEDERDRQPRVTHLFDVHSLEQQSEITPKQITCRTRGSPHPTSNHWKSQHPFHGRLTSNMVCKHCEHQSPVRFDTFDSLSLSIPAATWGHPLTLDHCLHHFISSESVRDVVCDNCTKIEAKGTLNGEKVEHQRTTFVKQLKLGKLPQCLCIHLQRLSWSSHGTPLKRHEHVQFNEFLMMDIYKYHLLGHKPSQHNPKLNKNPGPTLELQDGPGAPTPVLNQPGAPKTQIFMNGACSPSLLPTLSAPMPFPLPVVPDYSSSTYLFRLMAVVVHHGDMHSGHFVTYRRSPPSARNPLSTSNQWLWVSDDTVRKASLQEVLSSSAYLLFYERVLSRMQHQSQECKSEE
Outline: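 Human recombinant USP30 (0.2 nM final) was preincubated 30 min with compound (25 μM to 1.3 nM, 10-point) in Tris pH 8.0, 1 mM GSH, BGG and Triton X-100. Ub-Rh110 was then added for 30 min at room temperature and stopped with citric acid. Fluorescence at 485/535 nm gave % inhibition and a 4-parameter IC50 fit.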

First: N#CN[C@H]1C[C@H](C(=O)Nc2nc(-c3ccc(Cl)cc3)cs2)C1 [Compound 1-68, (1r,3r)-N-[4-(4-chlorophenyl)-1,3-thiazol-2-yl]-3-(cyanoamino)cyclo-butane-1-carboxamide]
Second: N#CN[C@H]1C[C@@H](C(=O)Nc2ncc(-c3ccccc3)s2)C1 [Compound 5-4, cis-3-(cyanoamino)-N-(5-phenyl-1,3-thiazol-2-yl)cyclobutane-1-carboxamide]
The IC50 of the first is lower: 100 to 1000 nM for the first, 1000 to 10000 nM for the second.

First: N#CN[C@H]1C[C@H](C(=O)Nc2cccc(-c3ccccc3)c2)C1 [Compound 1-69, (1r,3r)-3-(cyanoamino)-N-(3-phenylphenyl)cyclo-butane-1-carboxamide]
Second: N#CN[C@H]1C[C@H](C(=O)Nc2ncc(-c3ccccc3)s2)C1 [Compound 5-8, trans-3-(cyanoamino)-N-(5-phenyl-1,3-thiazol-2-yl)cyclobutane-1-carboxamide]
The IC50 of the first is lower: 100 to 1000 nM for the first, 1000 to 10000 nM for the second. The first is the more potent here.

First: CC(C)c1ccc(CNC(=O)[C@H]2C[C@H](NC#N)C2)cc1 [Compound 1-70, (1r,3r)-3-(cyanoamino)-N-{[4-(propan-2-yl)phenyl]methyl} cyclobutane-1-carboxamide]
Second: N#CN[C@H]1C[C@H](C(=O)Nc2cccc(C(F)(F)F)c2)C1 [Compound 1-73, (1r,3r)-3-(cyanoamino)-N-[3-(trifluoro-methyl)phenyl] cyclobutane-1-carboxamide]
The IC50 of the first is lower: < 100 nM for the first, 100 to 1000 nM for the second.

First: CC(C)(C)[C@H]1CC[C@@H](NC(=O)[C@H]2C[C@H](NC#N)C2)CC1 [Compound 1-71, (1r,3r)-3-(cyanoamino)-N-[(1s,4s)-4-tert-butylcyclohexyl]cyclo-butane-1-carboxamide]
Second: CC(C)(C)c1cnc(NC(=O)[C@H]2C[C@@H](NC#N)C2)s1 [Compound 5-10, cis-N-(5-tert-butyl-1,3-thiazol-2-yl)-3-(cyanoamino)cyclobutane-1-carboxamide]
The IC50 of the first is lower: 100 to 1000 nM for the first, 10000 to 25000 nM for the second. The first is the more potent here.

`N#CNC1CN(C(=O)Nc2ncc(C3CCCCC3)s2)C1` [Compound 2-1, 3-(cyanoamino)-N-(5-cyclohexyl-1,3-thiazol-2-yl)azetidine-1-carboxamide] and `N#CN[C@H]1CCN(C(=O)Nc2ncc(C3CCCCC3)s2)C1` [Compound 2-2, (3S)-3-(cyanoamino)-N-(5-cyclohexyl-1,3-thiazol-2-yl)pyrrolidine-1-carboxamide] fall in the same range of IC50: 1000 to 10000 nM for the first, 1000 to 10000 nM for the second.

`N#CN[C@H]1C[C@H](NC(=O)c2ncc(-c3ccccc3)s2)C1` [Compound 3-1, 5-phenyl-N-[(trans)-3-(cyanoamino)cyclobutyl]-1,3-thiazole-2-carboxamide] and `N#CN[C@H]1C[C@@H](NC(=O)c2ncc(-c3ccccc3)s2)C1` [Compound 4-1, 5-phenyl-N-[(cis)-3-(cyanoamino)cyclobutyl]-1,3-thiazole-2-carboxamide] fall in the same range of IC50: 1000 to 10000 nM for the first, 1000 to 10000 nM for the second.

`N#CNC1CC2(CCN2C(=O)c2cnc(-c3ccccc3)s2)C1` (stereo not drawn) [Compound 3-2, {[1-(2-phenyl-1,3-thiazole-5-carbonyl)-l-azaspiro[3.3]heptan-6-yl]amino} carbonitrile] and `Cn1cc(-c2ccc(-c3cc(C(=O)N4CC[C@]45C[C@@H](NC#N)C5)on3)cc2)cn1` [Compound 3-5, {[(4r,6s)-1-{3-[4-(1-methyl-1H-pyrazol-4-yl)phenyl]-1,2-oxazole-5-carbonyl}-1-azaspiro[3.3]heptan-6-yl]amino} carbonitrile] fall in the same range of IC50: 100 to 1000 nM for the first, 100 to 1000 nM for the second.

`Cn1cc(-c2ccc(-c3cc(C(=O)N[C@H]4C[C@@H](NC#N)C4)on3)cc2)cn1` [Compound 3-3, 3-[4-(1-methyl-1H-pyrazol-4-yl)phenyl]-N-[(1s,3s)-3-(cyanoamino)cyclobutyl]-1,2-oxazole-5-carboxamide] and `Cn1cc(-c2ccc(-c3cc(C(=O)N4CCC[C@]45C[C@H](NC#N)C5)on3)cc2)cn1` [Compound 3-4, {[(2r,4s)-5-{3-[4-(1-methyl-1H-pyrazol-4-yl)phenyl]-1,2-oxazole-5-carbonyl}-5-azaspiro[3.4]octan-2-yl]amino} carbonitrile] fall in the same range of IC50: 100 to 1000 nM for the first, 100 to 1000 nM for the second.

`CN(C(=O)c1cc(-c2cccc(C#N)c2)no1)[C@H]1C[C@H](NC#N)C1` [Compound 3-6, 3-(3-cyanophenyl)-N-methyl-N-[(1r,3r)-3-(cyanoamino)cyclobutyl]-1,2-oxazole-5-carboxamide] and `N#CN[C@H]1C[C@@H](C(=O)Nc2cnn(-c3ccccc3)c2)C1` [Compound 5-1, cis-3-(cyanoamino)-N-(1-phenyl-1H-pyrazol-4-yl)cyclobutane-1-carboxamide] fall in the same range of IC50: 1000 to 10000 nM for the first, 1000 to 10000 nM for the second.

Compared with `N#CN[C@H]1C[C@@H](C(=O)Nc2ccn(-c3ccccc3)n2)C1` [Compound 5-2, cis-3-(cyanoamino)-N-(1-phenyl-1H-pyrazol-3-yl)cyclobutane-1-carboxamide], `N#CN[C@H]1C[C@H](C(=O)Nc2ccn(-c3ccccc3)n2)C1` [Compound 5-6, trans-3-(cyanoamino)-N-(1-phenyl-1H-pyrazol-3-y1)cyclobutane-1-carboxamide] is lower in IC50: 10000 to 25000 nM for the first, 1000 to 10000 nM for the second.

First: N#CN[C@H]1C[C@@H](C(=O)Nc2ncc(C3CCCCC3)s2)C1 [Compound 5-3, cis-3-(cyanoamino)-N-(5-cyclohexyl-1,3-thiazol-2-yl)cyclobutane-1-carboxamide]
Second: N#CN[C@H]1C[C@H](C(=O)Nc2ncc(C3CCCCC3)s2)C1 [Compound 5-7, trans-3-(cyanoamino)-N-(5-cyclohexyl-1,3-thiazol-2-yl)cyclobutane-1-carboxamide]
The IC50 of the first is higher: 1000 to 10000 nM for the first, 100 to 1000 nM for the second. The second is the more potent here.

First: N#CN[C@H]1C[C@H](C(=O)Nc2cnn(-c3ccccc3)c2)C1 [Compound 5-5, trans-3-(cyanoamino)-N-(1-phenyl-1H-pyrazol-4-yl)cyclobutane-1-carboxamide]
Second: N#CN[C@H]1C[C@@H](C(=O)N2CCN(c3ccccc3)CC2)C1 [Compound 5-11, {[cis-3-(4-phenylpiperazine-1-carbonyl)cyclobutyl]amino} carbonitrile]
The IC50 of the first is lower: 1000 to 10000 nM for the first, 10000 to 25000 nM for the second. The first is the more potent here.

`N#CN[C@H]1C[C@@H](C(=O)Nc2ccc3c(c2)CCC3)C1` [Compound 5-9, cis-3-(cyanoamino)-N-(2,3-dihydro-1H-inden-5-yl)cyclobutane-1-carboxamide] and `N#CN[C@H]1C[C@H](C(=O)Nc2ccc3c(c2)CCC3)C1` [Compound 5-12, trans-3-(cyanoamio)-N-(2,3-dihydro-1H-inden-5-yl)cyclobutane-1-carboxamide] fall in the same range of IC50: 1000 to 10000 nM for the first, 1000 to 10000 nM for the second.

First: CC(C)(C)c1cnc(NC(=O)[C@H]2C[C@H](NC#N)C2)s1 [Compound 5-13, trans-N-(5-tert-butyl-1,3-thiazol-2-yl)-3-(cyanoamino)cyclobutane-1-carboxamide]
Second: N#CN[C@H]1CCC[C@@H](C(=O)Nc2ncc(C3CCCCC3)s2)C1 [Compound 10-4, (1R,3S)-3-(cyanoamino)-N-(5-cyclohexyl-1,3-thiazol-2-yl)cyclohexane-1-carboxamide]
The IC50 of the first is lower: 100 to 1000 nM for the first, > 25000 nM for the second.

First: N#CN[C@H]1C[C@H](C(=O)Nc2ccc(N3CCOCC3)cc2)C1 [Compound 5-14, trans-3-(cyanoamino)-N-[4-(morpholin-4-yl)phenyl]cylobutane-1-carboxamide]
Second: N#CN[C@H]1CCC[C@H](C(=O)Nc2ncc(C3CCCCC3)s2)C1 [Compound 10-5, (1S,3S)-3-(cyanoamino)-N-(5-cyclohexyl-1,3-thiazol-2-yl)cyclohexane-1-carboxamide]
The IC50 of the first is lower: 10000 to 25000 nM for the first, > 25000 nM for the second. The first is the more potent here.

Compared with `N#CN[C@H]1C[C@@]2(CCN(c3nc(Cl)c(C4CCCCC4)s3)C2=O)C1` [Compound 7-2, {[(2s,4r)-6-(4-chloro-5-cyclohexyl-l,3-thiazol-2-yl)-5-oxo-6-azaspiro[3.4]octan-2-yl]amino}carbonitrile], `N#CN[C@H]1C[C@]2(CCN(c3nc(Cl)c(C4CCCCC4)s3)C2=O)C1` [Compound 7-3, {[(2r,4s)-6-(4-chloro-5-cyclohexyl-1,3-thiazol-2-yl)-5-oxo-6-azaspiro[3.4]octan-2-yl]amino}carbonitrilc] is lower in IC50: 100 to 1000 nM for the first, < 100 nM for the second.

Compared with `CO[C@]1(C(=O)Nc2nc(Cl)c(C(C)(C)C)s2)C[C@@H](NC#N)C1` [Compound 8-1, N-(5-tert-butyl-4-chloro-1,3-thiazol-2-yl)-3-(cyanoamino)-1-methoxycyclobutane-1-carboxamide], `N#CN[C@H]1CC[C@@H](C(=O)Nc2ncc(C3CCCCC3)s2)CC1` [Compound 10-1, cis-4-(cyanoamino)-N-(5-cyclohexyl-1,3-thiazol-2-yl)cyclohexane-1-carboxamide] is higher in IC50: < 100 nM for the first, 100 to 1000 nM for the second.

`N#CN[C@H]1CC[C@H](C(=O)Nc2ncc(C3CCCCC3)s2)CC1` [Compound 10-2, trans-4-(cyanoamino)-N-(5-cyclohexyl-1,3-thiazol-2-yl)cyclohexane-1-carboxamide] and `N#CN[C@@H]1CCC[C@H](C(=O)Nc2ncc(C3CCCCC3)s2)C1` [Compound 10-6, (1S,3R)-3-(cyanoamino)-N-(5-cyclohexyl-1,3-thiazol-2-yl)cyclohexane-1-carboxamide] fall in the same range of IC50: 1000 to 10000 nM for the first, 1000 to 10000 nM for the second.

For `N#CN[C@@H]1CCC[C@H]1C(=O)Nc1ncc(C2CCCCC2)s1` [Compound 10-3, (1R,2R)-2-(cyanoamino)-N-(5-cyclohexyl-1,3-thiazol-2-yl)cyclopentane-1-carboxamide], the IC50 was 1000 to 10000 nM.
